Results: patent US7524646B2 (priority 2001, dated 2009)

Assays:
Assay type in all cases: cell-based, E. coli
[1] = tested on: strain β5498 carrying the valS:T222P allele; experiment: Amino acid composition of total protein after growth with Abu, valS:T222P; conditions: for valine in cellular protein replaced by Abu: whole cell protein, strain harboring the mutant allele, Abu 0.2 mM
Experimental: (§1) We anticipated that ValRS mutants that misincorporated Cys would also misincorporate Abu. […] Whole cell protein was isolated from strain CU505 grown in the presence of Abu (0.2 mM), in the presence or absence of the valS:T222P allele in the host cell. […] Finally, the valine-rich yeast protein AlaXp (swissprot:P53960) was overexpressed and purified from strains containing the valS:T222P allele grown in the presence of Abu. The protein samples were digested by trypsin and analyzed by mass spectrometry. […] For a given peptide the degree of misincorporation ranged between 9.5% and 18% per Val codon. Sequencing of several Abu-containing peptides confirmed that Abu was specifically misincorporated into positions designated by Val codons.
(§2) Table 2. Incorporation of Abu into cells bearing wild-type and T222P mutant alleles of valS. Cultures of the Δilv strain CU505 (19) and the isogenic strain β5498 carrying the valS:T222P allele were grown overnight in minimal medium (27) with Ile-Leu (0.3 mM) and limiting valine (0.04 mM Ile-Val), diluted (1/2), and adjusted with Ile-Val (0.02 mM) with or without Abu (0.2 mM). After 24 hours of growth, total protein was extracted as follows. Cells were first harvested by centrifugation and washed in cold 10% trichloroacetic acid (TCA, 1/2 of the culture volume). Cells were then re-centrifuged at 4000×g for 10 min, resuspended in cold 10% TCA (1/10 of the culture volume) and centrifuged again. The washed cells were resuspended in […], heated at 95° C. for 30 minutes and centrifuged (4000×g, 10 min). The precipitate was washed three times with cold acetone and dissolved in 50 mM NH4HCO3. Proteins were hydrolyzed in 6 N HCl-0.2% phenol at 110C. for 20 h in sealed tubes. Norleucine was added as an internal standard. Aliquots of the hydrolysates were analyzed on a Beckman 6300 Amino Acid Analyzer. Amino acids were quantified by appropriate standards and values are presented relative the wild-type (WT) control that lacked Abu.

[2] = tested on: strain β5456 (valS:T222P); experiment: Growth on Abu gradient plates, valS:T222P strain; conditions: gradient plate, 50 μl 0.1 M, 2 days at 37° C.
Experimental: FIG. 1C: Photographs showing the results of growth of a strain carrying the valS:T222P allele in the presence of L-threonine or Abu. Minimal medium plates supplemented with thymidine (0.3 mM) were pretreated with amino acid solutions by streaking either with Thr (50 μl (0.2 M)) or Abu (50 μl (0.1 M)) vertically along the diameter of the plate to create an amino acid gradient. Mutant (β5456) and wild-type (β5419 (thyA::erm+ ΔnrdD::kan+ pTS13 (bla+ thyA: 146GUA)) strains were then streaked horizontally across the plates and incubated for 2 days at 37° C.
as §1

valine auxotroph CU505 = experiment: Growth of valine auxotroph with limiting valine and increasing Abu, wild-type valS; conditions: up to 1 mM Abu; OD 600 nm, 24 h, 30° C.
Experimental: (§3) FIG. 3. A graph showing the results of growth of the valine auxotroph CU505 in the presence of a limiting supply of valine and increasing concentrations of Abu. Overnight cultures of Δilv auxotrophs containing the WT valS (É) or the mutant valS:T222P allele (J) and grown in MS glucose medium with limiting valine (0.04 mM Ile-Val. 0.3 mM Ile-Leu) were diluted 1/1, the Val concentration was adjusted to 0.02 mM and the biomass was determined by measuring the optical density at 600 nm after 24 h of growth at 30° C.
(§4) Abu misincorporation. The valine auxotroph CU505 (33) was grown in the presence of a limiting supply of valine and increasing concentrations of Abu (FIG. 3). […] In contrast, when the valST222P allele was introduced into the chromosome (strain β5498), the yield of cells was diminished in the absence of Abu but increased up to 30% when Abu (0.2 mM) was added.

[3] = tested on: Δilv strain CU505 (wild-type valS); experiment: Amino acid composition of total protein after growth with Abu, wild-type valS; conditions: WT + Abu (0.2 mM); 24 hours; relative to WT control that lacked Abu
Experimental: as §1, §2

[4] = tested on: strain β5498 (valS:T222P allele); experiment: Growth of valine auxotroph with limiting valine and Abu, valS:T222P; conditions: Abu 0.2 mM; limiting valine 0.02 mM; OD 600 nm, 24 h, 30° C.
Experimental: as §3, §4

[5] = T222P + Abu (0.2 mM), 24 hours, relative to WT control that lacked Abu

**Q.** With `CCC(N)C(=O)O` (stereo not drawn) [Abu, α-aminobutyric acid] as the molecule, how does the “Abu incorporated into total protein” value [1, 5] read?
**A.** 0.24

**Q.** What about the “Ala incorporated into total protein” value [1, 5] of the same molecule?
**A.** 0.92

**Q.** And the “Ile incorporated into total protein” value [1, 5]?
**A.** 1.0

**Q.** What about the “Val + Abu incorporated into total protein” value [1, 5] of the same molecule?
**A.** 0.97

**Q.** What about the “Val incorporated into total protein” value [1, 5] of the same molecule?
**A.** 0.73

**Q.** What about the “valine in cellular protein replaced by Abu” value [1] of the same molecule?
**A.** 24%

**Q.** And the “valine in cellular protein replaced by Abu” value ([1]; listed as aminobutyrate)?
**A.** Over 20%

**Q.** What about the “sensitivity of growth to Abu” value [2] of the same molecule?
**A.** sensitive

**Q.** What about the “biomass of cells relative to the valine concentration” value (valine auxotroph CU505) of the same molecule?
**A.** did not change

**Q.** What about the “Abu incorporated into total protein” value [3] of the same molecule?
**A.** 0.0

**Q.** What about the “Ala incorporated into total protein” value [3] of the same molecule?
**A.** 1.0

**Q.** And the “Ile incorporated into total protein” value [3]?
**A.** 1.0

**Q.** And the “Val + Abu incorporated into total protein” value [3]?
**A.** 1.0

**Q.** What about the “Val incorporated into total protein” value [3] of the same molecule?
**A.** 1.0

**Q.** What about the “increase of yield of cells” value [4] of the same molecule?
**A.** up to 30%
